In patent US11926645B2, “Compounds and methods for treatment of viral infections” (priority 2020, dated 2024):
Like-named read-outs stand apart in the source and are kept apart here.

Tests used:
Assay type in all cases: cell-based
SARS-CoV-2-Nluc viruses = experiment: microbe, parasite or virus in culture
RSV strain A2 = experiment: RSV antiviral assay (Hep2), EC50-Hep2/B1-384; conditions: human respiratory syncytial virus, HEp-2, 96 h; Hep2 cells, 4 days, Cell-Titer Glo
[1] = tested on: RSV-Fluc (Respiratory Syncytial virus strain A2 containing the firefly luciferase reporter); experiment: microbe, parasite or virus in culture; conditions: human respiratory syncytial virus, 72 h, NHBE cells, three days
in vitro = conditions: human
Method: The cytotoxicity of compounds was determined in A549-hACE2 cells in the following manner. Compounds (200 nL) were spotted onto 384-well Grenier plates prior to seeding 5000 A549-hACE2 cells/well in a volume of 40 μL culture medium. The plates were incubated at 37° C. for 48 hours with 5% CO2. On day 2, 40 μL of CellTiter-Glo (Promega) was added and mixed 5 times.

[2] = Severe acute respiratory syndrome coronavirus 2, 48 h; read-out: SARS-CoV2 EC50
[3] = Severe acute respiratory syndrome coronavirus 2, 48 h, read-out: SARS-CoV2 EC50

| SMILES | EC50 (SARS-CoV-2-Nluc viruses; [2]) [µM] | EC50 (RSV strain A2) [µM] | EC50 [1] [µM] | CC50 at 48 h (in vitro) [µM] | EC50 (SARS-CoV-2-Nluc viruses; [3]) [µM] |
| --- | --- | --- | --- | --- | --- |
| CCCCCCCC(=O)OC[C@H]1O[C@@](C#N)(c2ccc3c(N)ncnn23)[C@H](O)[C@@H]1O [Compound 20, ((2R,3S,4R,5R)-5-(4-aminopyrrolo[2,1-f][1,2,4]triazin-7-yl)-5-cyano-3,4-dihydroxytetrahydrofuran-2-yl)methyl octanoate] | 0.61 | 0.272 | 0.841 | > 10 | – |
| CC(C)CC(=O)OC[C@H]1O[C@@](C#N)(c2ccc3c(N)ncnn23)[C@H](O)[C@@H]1O [Compound 16, ((2R,3S,4R,5R)-5-(4-aminopyrrolo[2,1-f][1,2,4]triazin-7-yl)-5-cyano-3,4-dihydroxytetrahydrofuran-2-yl)methyl 3-methylbutanoate] | – | 0.216 | 0.575 | > 10 | 1.22 |
| CC(C)C(=O)O[C@H]1[C@@H](OC(=O)C(C)C)[C@](C#N)(c2ccc3c(N)ncnn23)O[C@@H]1COC(=O)C(C)(C)N [Compound 11, (2R,3R,4R,5R)-5-(((2-amino-2-methylpropanoyl)oxy)methyl)-2-(4-aminopyrrolo[2,1-f][1,2,4]triazin-7-yl)-2-cyanotetrahydrofuran-3,4-diyl bis(2-methylpropanoate)] | 2.6 | 0.387 | 0.301 | > 100 | – |
| CCC(CC)C(=O)OC[C@H]1O[C@@](C#N)(c2ccc3c(N)ncnn23)[C@H](O)[C@@H]1O [Compound 19, ((2R,3S,4R,5R)-5-(4-aminopyrrolo[2,1-f][1,2,4]triazin-7-yl)-5-cyano-3,4-dihydroxytetrahydrofuran-2-yl)methyl 2-ethylbutanoate] | 1.45 | 0.238 | 0.261 | > 10 | – |
| CCCC(CCC)C(=O)OC[C@H]1O[C@@](C#N)(c2ccc3c(N)ncnn23)[C@H](O)[C@@H]1O [Compound 18, ((2R,3S,4R,5R)-5-(4-aminopyrrolo[2,1-f][1,2,4]triazin-7-yl)-5-cyano-3,4-dihydroxytetrahydrofuran-2-yl)methyl 2-propylpentanoate] | – | 0.172 | 0.224 | > 10 | 0.94 |
| CCCCCC(=O)OC[C@H]1O[C@@](C#N)(c2ccc3c(N)ncnn23)[C@H](O)[C@@H]1O [Compound 31, ((2R,3S,4R,5R)-5-(4-aminopyrrolo[2,1-f][1,2,4]triazin-7-yl)-5-cyano-3,4-dihydroxytetrahydrofuran-2-yl)methyl hexanoate] | 0.32 | 0.198 | 2.74 | 24 | – |
| CC(=O)OC[C@H]1O[C@@](C#N)(c2ccc3c(N)ncnn23)[C@H](O)[C@@H]1O [Compound 30, ((2R,3S,4R,5R)-5-(4-aminopyrrolo[2,1-f][1,2,4]triazin-7-yl)-5-cyano-3,4-dihydroxytetrahydrofuran-2-yl)methyl acetate] | 2.32 | 0.643 | 2.37 | > 50 | – |
